Results: the Deep4Chem optical property database

Experiment: photoluminescence quantum yield (fraction); solvent given as SMILES

CC1(C)CC(/N=C/c2ccc3ccc4cccc5ccc2c3c45)CC(C)(C)N1[O]
photoluminescence quantum yield (in C1CCCCC1): 0.11
photoluminescence quantum yield (in CC#N): 0.01
photoluminescence quantum yield (in CO): 0.03
photoluminescence quantum yield (in ClC(Cl)Cl): 0.02

CC(C)(C)c1ccc2c(c1)B1c3cc(C(C)(C)C)ccc3Oc3cc(-n4c5ccccc5c5c6c(c7ccccc7n6-c6ccccc6)c6c(c7ccccc7n6-c6ccccc6)c54)cc(c31)O2
photoluminescence quantum yield (in Cc1ccccc1): 0.99

N#Cc1c(/C=C/c2ccc(N(c3ccccc3)c3ccccc3)cc2)cc(-c2cccs2)cc1N1CCCCC1
photoluminescence quantum yield (in CS(C)=O): 0.53

c1cc2c3c(cccc3c1)C(N1CCOCCOCCN(C3=Nc4cccc5cccc3c45)CCOCC1)=N2
photoluminescence quantum yield (in CC#N): 0.0051

Clc1nc(Nc2ccccc2)nc(Nc2ccc3c4cccc5cccc(c6cccc2c63)c54)n1
photoluminescence quantum yield (in C1COCCO1): 0.53
photoluminescence quantum yield (in CC#N): 0.45
photoluminescence quantum yield (in CCCCOCCCC): 0.49
photoluminescence quantum yield (in CCOC(C)=O): 0.43

COc1ccc(C2=C3C=c4c(oc5cc6c(cc45)[C@H]4CC[C@]5(C)C(=O)CC[C@H]5[C@@H]4CC6)=[N+]3[B-](F)(F)n3c2cc2c4cc5c(cc4oc23)CC[C@@H]2[C@@H]5CC[C@]3(C)C(=O)CC[C@@H]23)cc1
photoluminescence quantum yield (in CCOC(C)=O): 0.61
photoluminescence quantum yield (in CCOCC): 0.88
photoluminescence quantum yield (in CO): 0.52

Cc1ccc([C@@H]2C[C@](O)(c3ccccn3)C[C@](O)(c3ccccn3)[C@H]2C(=O)c2ccc(N(c3ccccc3)c3ccccc3)cc2)cc1
photoluminescence quantum yield (in C1CCOC1): 0.54
photoluminescence quantum yield (in CC#N): 0.02
photoluminescence quantum yield (in CCO): 0.01
photoluminescence quantum yield (in CCOC(C)=O): 0.44
photoluminescence quantum yield (in CN(C)C=O): 0.03
photoluminescence quantum yield (in ClCCl): 0.27
photoluminescence quantum yield (in c1ccccc1): 0.97

CCOc1ccc2c(-c3nc(-c4ccccc4)no3)cc(=O)oc2c1
photoluminescence quantum yield (in CCO): 0.6
photoluminescence quantum yield (in ClC(Cl)Cl): 0.31

CCOC(=O)c1ccc(NC(=O)COc2cc3c4c([nH]c3c(C)c2C)C(=O)CCC4)cc1
photoluminescence quantum yield (in C1COCCO1): 0.031
photoluminescence quantum yield (in CC#N): 0.131
photoluminescence quantum yield (in CCO): 0.097
photoluminescence quantum yield (in CS(C)=O): 0.123
photoluminescence quantum yield (in O): 0.037
photoluminescence quantum yield (in c1ccccc1): 0.075

Cc1ccc(C2=C3C=CC([Se]c4ccccc4)=[N+]3[B-](F)(F)n3c([Se]c4ccccc4)ccc32)cc1
photoluminescence quantum yield (in C1CCOC1): 0.56

O[Si](c1c2ccccc2cc2ccccc12)(c1c2ccccc2cc2ccccc12)c1c2ccccc2cc2ccccc12
photoluminescence quantum yield (in ClC(Cl)Cl): 0.015

CCC1=C(C)C(=O)n2c1cc1c(C)c(CC(=O)O)c(C)n1c2=O
photoluminescence quantum yield (in CO): 0.91
photoluminescence quantum yield (in CS(C)=O): 1
photoluminescence quantum yield (in ClC(Cl)Cl): 0.96
photoluminescence quantum yield (in c1ccccc1): 0.88

O=c1oc2ccccc2cc1/C=C/c1ccc([N+](=O)[O-])cc1
photoluminescence quantum yield (in CC#N): 0.04

Oc1ccc2ccccc2c1/C=N/c1cc2ccccc2cc1/N=C/c1c(O)ccc2ccccc12
photoluminescence quantum yield (in CC#N): 0.042

CC1=CC(C)=[N+]2C1=C(c1ccc(I)cc1)c1c(C)cc(C)n1[B-]21OCCO1
photoluminescence quantum yield (in ClC(Cl)Cl): 0.14

C=CCNc1ccc2ccc3oc4cc(=[N+]5CCCC5)ccc-4nc3c2c1
photoluminescence quantum yield (in CC#N): 0.1
photoluminescence quantum yield (in CCO): 0.04
photoluminescence quantum yield (in ClCCl): 0.13
photoluminescence quantum yield (in O): 0.006

CC(C)c1ccc2ccc3cccc4ccc1c2c34
photoluminescence quantum yield (in CCCCCC): 0.21
photoluminescence quantum yield (in CO): 0.24
photoluminescence quantum yield (in ClCCl): 0.41

N#C/C(=C\c1ccc(Cl)cc1)c1nc(-c2ccccc2)c(-c2ccccc2)s1
photoluminescence quantum yield (in CC#N): 0.004

CN(C)c1ccc2c(-c3cc(C(=O)[O-])ccc3C(=O)[O-])c3ccc(=[N+](C)C)cc-3oc2c1
photoluminescence quantum yield (in CCO): 0.59
photoluminescence quantum yield (in O): 0.45

c1ccc(N(c2ccccc2)c2ccc(-c3ncc(-c4ccncc4)s3)cc2)cc1
photoluminescence quantum yield (in CO): 0.07

Clc1cc(Cl)c([C](c2c(Cl)cc(Cl)cc2Cl)c2c(Cl)cc(Cl)cc2Cl)c(Cl)c1
photoluminescence quantum yield (in C1CCCCC1): 0.008

C(#Cc1ccc(-n2c3ccccc3c3ccccc32)cc1)c1ccccc1
photoluminescence quantum yield (in ClCCl): 0.72
